Results published in publication PMC6130841 (Science translational medicine, 2018).
Each block holds one compound with its values, some of them ahead of it. Where a SMILES comes first, the peptide text is derived from it. Bridges are numbered along the chain shown (N, C = ends). [ ]: non-standard residue; d: D form. R8 = C=CCCCCCC[C@@](C)(N)C(=O)O; S5 = C=CCCC[C@](C)(N)C(=O)O

Key:
[1] = tested on: MDMX; conditions: cited from earlier work
[2] = tested on: leukemia cell lines with WT p53; assay: Cytotoxicity assay in leukemia cell lines with WT p53; conditions: five cell lines with WT p53; table S2
[3] = tested on: healthy hematopoietic cells; assay: Effects on healthy hematopoiesis in non-tumor-bearing C57/BL6 mice; format: in vivo, mouse; conditions: 20 mg/kg TIW for 4 weeks
[4] = tested on: U2OS p21-MS2 cells; assay: Live-cell imaging of p21-MS2 transcription sites; conditions: 5 μM, 4 hours after addition; 54 treated cells; untreated 16%
[5] = tested on: HL60 (p53 null); assay: Proliferation and apoptosis in HL60; format: cell-based, human
[6] = tested on: MOLM13 p53 shRNA knockdown cell lines; assay: Proliferation and apoptosis in isogenic p53 shRNA MOLM13 cell lines; format: cell-based, human; conditions: n = 3
[7] = tested on: Kasumi-1 (p53 R248Q mutant)
[8] = tested on: SJSA-1 cells; assay: Caspase-Glo 3/7 assay in SJSA-1 cells; format: cell-based, human; conditions: Caspase-Glo 3/7, 48 hours after treatment; n = 2
[9] = tested on: primary AML cells; assay: Viability, CFC and apoptosis of primary AML patient cells; format: cell-based, human; conditions: AML n = 4 compared to healthy controls n = 3
[10] = tested on: ML2 cells; assay: ML2 AML xenograft in mice; format: in vivo, mouse; conditions: vehicle 28.5
[11] = clinical trials; cited from earlier work
[12] = tested on: p53 WT AML cell lines; assay: Cell cycle; format: cell-based, human
[13] = tested on: MOLM13 cells; assay: MOLM13 AML xenograft in NSG mice; format: in vivo, mouse; conditions: for median survival: vehicle 34
[14] = tested on: circulating CD34+ leukemic blasts; assay: Compassionate-use treatment of one MDS/AML patient; format: in vivo, human
[15] = tested on: p53 WT AML cell lines (MOLM13, MOLM14, ML2, OCI/AML3, OCI/AML5); assay: Proliferation by trypan blue exclusion, p53 WT AML cell lines; format: cell-based, human
[16] = tested on: AML cell lines; assay: Colony-forming capacity and serial replating of AML cell lines
[17] = tested on: patient's MDS/AML cells; assay: In vitro treatment of the MDS/AML patient's cells; format: cell-based, human
[18] = tested on: SJSA-1 cells; assay: p21 protein ELISA in SJSA-1 cells; format: cell-based, human; conditions: 21 hours after treatment, n = 2
[19] = tested on: p53 WT AML cells (primary AML cells, MOLM13); assay: p53 pathway activation; format: cell-based, human
[20] = cited from earlier work
[21] = tested on: MDMX; assay: MDMX expression in AML cells; conditions: mRNA and protein levels
[22] = target: MDM2 (Homo sapiens, UniProt Q00987); assay: Binding assay on immobilized protein surface; conditions: n = 2
[23] = target: T1, MDMX (Homo sapiens, UniProt O15151); assay: Binding assay on immobilized protein surface; conditions: n = 2
T1 sequence (O15151 1-490): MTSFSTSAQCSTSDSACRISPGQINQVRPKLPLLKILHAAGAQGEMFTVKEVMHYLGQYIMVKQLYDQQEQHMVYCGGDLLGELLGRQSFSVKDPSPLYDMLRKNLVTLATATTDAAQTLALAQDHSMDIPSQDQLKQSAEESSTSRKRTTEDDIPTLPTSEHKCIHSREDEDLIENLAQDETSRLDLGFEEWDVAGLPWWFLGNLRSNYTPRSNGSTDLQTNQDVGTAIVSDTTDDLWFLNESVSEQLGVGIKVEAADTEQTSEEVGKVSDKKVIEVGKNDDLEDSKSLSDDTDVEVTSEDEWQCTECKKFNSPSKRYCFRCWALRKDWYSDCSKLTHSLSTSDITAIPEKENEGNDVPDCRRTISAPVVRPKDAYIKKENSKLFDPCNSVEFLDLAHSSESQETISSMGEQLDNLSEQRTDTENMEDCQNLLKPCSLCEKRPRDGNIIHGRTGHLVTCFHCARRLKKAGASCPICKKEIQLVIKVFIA

MDM2, sequence (Q00987 whole entry): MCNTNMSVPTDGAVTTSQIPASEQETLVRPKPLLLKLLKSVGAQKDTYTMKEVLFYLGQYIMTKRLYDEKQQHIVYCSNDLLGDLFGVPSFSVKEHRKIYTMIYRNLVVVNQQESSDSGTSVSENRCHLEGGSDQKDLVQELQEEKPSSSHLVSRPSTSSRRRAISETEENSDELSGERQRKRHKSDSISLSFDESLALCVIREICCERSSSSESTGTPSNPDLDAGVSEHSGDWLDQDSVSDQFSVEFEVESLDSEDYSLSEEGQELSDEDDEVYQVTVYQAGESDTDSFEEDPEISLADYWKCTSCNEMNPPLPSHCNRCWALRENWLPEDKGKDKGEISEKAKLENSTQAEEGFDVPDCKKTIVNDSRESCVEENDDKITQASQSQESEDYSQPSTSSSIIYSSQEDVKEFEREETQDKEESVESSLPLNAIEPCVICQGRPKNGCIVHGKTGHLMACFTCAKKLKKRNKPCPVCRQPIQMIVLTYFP

SMILES: CCOc1cc(C(C)(C)C)ccc1C1=N[C@@](C)(c2ccc(Cl)cc2)[C@@](C)(c2ccc(Cl)cc2)N1C(=O)N1CCN(CCCS(C)(=O)=O)CC1 [RG7112]
affinity for MDMX [1]: lack of affinity for MDMX

SMILES: CC(=O)N[C@@H](CC(C)C)C(=O)N[C@H](C(=O)N[C@@H](Cc1ccccc1)C(=O)N[C@]1(C)CCCCCC/C=C\CCC[C@@](C)(C(=O)N[C@@H](C)C(=O)N[C@@H](C)C(=O)N[C@@H](C)C(=O)N[C@@H](C)C(=O)N[C@@H](C)C(=O)N[C@H](C)C(N)=O)NC(=O)[C@H](CC(C)C)NC(=O)[C@H](CCC(N)=O)NC(=O)[C@H](C)NC(=O)[C@H](Cc2c[nH]c3ccccc23)NC(=O)[C@H](Cc2ccc(O)cc2)NC(=O)[C@H](CCC(=O)O)NC1=O)[C@@H](C)O [ALRN-6924] (Ac-LTF[R8]EYWAQL[S5]AAAAA[dA]-NH2; staple (Z) 4-11; N-terminus and C-terminus assumed)
cytotoxic activity [2]: potent activity against all five cell lines with WT p53
frequency of HSCs and progenitors versus control [3]: no significant differences
thrombocytopenia (platelet counts) ([3]; n = 10): did not show signs of thrombocytopenia
neutrophils ([3]; n = 10, within the normal range): only a modest reduction in neutrophils
proportion of cells harboring an active TS [4]: ~ 44%
cell proliferation ([5]; HL60 (p53 null)): no effect on cell proliferation
apoptosis ([5]; HL60, doses between 5 and 10 μM): did not observe a significant increase in apoptosis
p53 dependency of growth inhibition and apoptosis [6]: completely p53-dependent manner
cell proliferation [7]: no effect on cell proliferation
caspase-3/7 activity [8]: concentration- dependent increase
CFC of primary AML PBMCs [9]: inhibited CFC
average median survival ([10]; 20 mg/kg IV BIW): 38 days
average median survival ([10]; 20 mg/kg IV TIW): 72 days
grade 3/4 thrombocytopenias [11]: no reported grade 3/4 thrombocytopenias
apoptosis ([12]; annexin V/DAPI, 24 hours, all five AML cell lines, n = 3): dose-dependent increase in apoptosis
cell cycle ([12]; propidium iodide staining, all p53 WT AML cell lines): induced cell cycle arrest
median survival ([13]; 20 mg/kg IV BIW (group 2)): 83 days
mice alive 300 days after treatment ([13]; 20 mg/kg IV TIW (group 3)): 40%
median survival ([13]; 20 mg/kg IV TIW (group 3)): 151 days
average engraftment of human CD45 leukemic cells ([13]; 20 mg/kg, after 5 weeks of treatment, mouse BM, FACS, vehicle 23.3%): 0.00557%
increase of median survival compared to the control ([13]; 8 or 12 mg/kg IV BIW): 5.5 days
human CD45 leukemic cells in the BM ([13]; 8 or 12 mg/kg IV BIW, day 7 after the start of treatment): dose-dependent decrease in human CD45 leukemic cells
thrombocytopenia on treatment ([14]; 3.1 mg/kg IV once weekly, one patient): no grade 3 or 4 thrombocytopenia was observed
circulating CD34+ leukemic blasts ([14]; 3.1 mg/kg IV once weekly, weeks 2 and 3): less than 1%
circulating CD34+ leukemic blasts ([14]; 3.1 mg/kg IV once weekly, within 12 hours, initially 5 to 7%): 1.5 to 2.5%
p53 protein (intracellular FACS) ([14]; 3.1 mg/kg IV, first administration): rapidly induced in CD34^+ leukemic blasts, but not in healthy lymphocytes
sensitivity of OCI/AML3 ([15]; OCI/AML3, suspension culture): less sensitive
cellular proliferation ([15]; trypan blue exclusion, dose- and time-dependent, n = 3): inhibited cellular proliferation
colony-forming capacity (CFC) ([16]; 0.5 pM (so in the source), methylcellulose, 10 days, n = 3): abrogated the colony-forming capacity
serial replating capacity ([16]; 0.5 μM, three of the five AML cell lines): completely abrogated serial replating capacity
potency in CFC and serial replating assays versus comparators ([16]; AML cell lines): increased potency over RG7388 and all other p53- stapled peptide prototypes tested
inhibition of clonogenicity versus RG7388 ([16]; all five AML cell lines): greater inhibition of clonogenicity compared to RG7388
AML-inhibitory effect versus RG7388 ([17]; 10 μM each): greater AML-inhibitory effect than RG7388
cell proliferation and clonogenic capacity of the patient's MDS/AML cells ([17]; 10 μM in liquid culture, CFC 10 days): inhibited cell proliferation and clonogenic capacity
p21 protein [18]: concentration- dependent increase
p53 target gene expression (qRT-PCR) ([19]; MOLM13, 24 hours of treatment, n = 3): up-regulated CDKN1A, MDM2, BAX, PUMA, and GADD45a in a dose-dependent manner
p53, p21 and MDM2 protein ([19]; Western blot, primary AML cells and AML cell lines expressing WT p53, not in p53 null AML cells): stabilized p53 and up-regulated its downstream targets p21 and MDM2 in p53 WT cells in a dose-dependent manner

SMILES: COc1ccc(C2=N[C@@H](c3ccc(Cl)cc3)[C@@H](c3ccc(Cl)cc3)N2C(=O)N2CCNC(=O)C2)c(OC(C)C)c1 [Nutlin-3]
bioavailability [20]: poor bioavailability

SMILES: CN1CCN(c2ccc([N+](=O)[O-])c3no[n+]([O-])c23)CC1 [NSC-207895]
expression of MDMX [21]: downregulated expression of MDMX

wash-off t1/2 from MDM2-coated surface [22]: 2 to 3 min
binding to MDMX [23]: did not bind to MDMX at all
SMILES: COc1cc(C(=O)O)ccc1NC(=O)[C@@H]1N[C@@H](CC(C)(C)C)[C@](C#N)(c2ccc(Cl)cc2F)[C@H]1c1cccc(Cl)c1F [RG7388]
affinity for MDMX [1]: lack of affinity for MDMX
